Source: patent US9315517B2, “Imidazol-piperidinyl derivatives as modulators of kinase activity” (Merck Patent GmbH, priority 2012, dated 2016)
pIC50: −log10 of the molar value.

Columns and labels:
[1] = target: T1, His-AKT (Full Length) (Homo sapiens, UniProt P31749); assay: AKT enzyme assay; format: biochemical; conditions: enzyme inhibition; 160 uM ATP, 90 min at 25° C., Caliper mobility shift
T1 construct: 0.1 ng/μl His-AKT (Full Length); His; purchased Invitrogen P2999
Experimental: (§1) The IC50 values reported for the compounds in the Experimental section were derived from the following protocol for the p70S6K and AKT enzyme assays.
A TTP Mosquito liquid handling instrument was used to place 125 nl of the appropriate concentration of inhibitor in 100% DMSO (for a dose response curve calculation) into each well of a 384-well plate. To this reaction components were added to a final volume of 12.5 μl: • 0.1 ng/μl His-AKT (Full Length), (Invitrogen, Part # P2999, Lot # 641228C). • 160 uM ATP (Fluke, 02055) • 1 mM DTT (Sigma, D0632) • 1 mM MgCl2 (Sigma, M1028) • 1 μM substrate peptide (sequence FITC-AHA-GRPRTSSFAEG-NH2), synthesized by Tufts Peptide Synthesis service. • 100 mM HEPES pH 7.5 (Calbiochem, 391338) • 0.015% Brij-35 (Sigma, B4184)
The reaction was incubated for 90 min at 25° C., and then stopped by the addition of 70 μl of Stop buffer (100 mM HEPES pH 7.5, 0.015% Brij-35, 10 mM EDTA (Sigma, E7889)).
The plate was read on a Caliper LC 3000 in an Off-Chip mobility shift assay format, using the following parameters for a 12-sipper chip: screening pressure −2.3 psi, upstream voltage −500, and downstream voltage −3000. These conditions caused unphosphorylated substrate and phosphorylated product peptide to resolve as separate peaks allowing direct measurement of percentage of conversion of substrate to product. The percent conversion was plotted against concentration of inhibitor to produce a sigmoidal dose response curve, from which an IC50 was calculated.

[2] = target: T2, P70S6K (T412E mutant, Millipore) (Homo sapiens, UniProt P23443, T412E); assay: P70S6K enzyme assay; format: biochemical; conditions: enzyme inhibition; 24 μM ATP, 90 min at 25° C., Caliper mobility shift
T2 construct: purchased Millipore
T2 sequence (P23443 whole entry T412E): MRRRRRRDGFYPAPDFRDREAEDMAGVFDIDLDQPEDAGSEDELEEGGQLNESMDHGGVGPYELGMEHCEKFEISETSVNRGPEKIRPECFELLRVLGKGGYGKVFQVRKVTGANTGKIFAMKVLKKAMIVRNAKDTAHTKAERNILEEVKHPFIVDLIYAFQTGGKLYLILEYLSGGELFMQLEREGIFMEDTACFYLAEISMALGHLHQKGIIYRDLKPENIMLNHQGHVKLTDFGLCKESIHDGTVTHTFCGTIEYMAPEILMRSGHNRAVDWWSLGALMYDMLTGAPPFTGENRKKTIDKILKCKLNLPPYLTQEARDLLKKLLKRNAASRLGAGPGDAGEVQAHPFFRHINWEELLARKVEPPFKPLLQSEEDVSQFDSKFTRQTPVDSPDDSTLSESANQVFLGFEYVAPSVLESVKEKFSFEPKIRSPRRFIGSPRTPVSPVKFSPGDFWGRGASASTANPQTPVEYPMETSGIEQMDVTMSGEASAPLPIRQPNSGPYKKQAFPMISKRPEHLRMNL
Experimental: as §1
P70S6K inhibitor compounds were diluted and plated in 96 well plates. A reaction mixture including the following components was then added to the compound plate to initiate the enzyme reaction; P70S6K (3 nM, T412E mutant, Millipore) was mixed with 24 μM ATP in an assay buffer containing 100 mM Hepes (pH 7.5), 5 mM MgCl2, 1 mM DTT, 0.015% Brij and 1 μM of the substrate peptide FITC-AHA-AKRRRLSSLRA-OH (derived from the S6 ribosomal protein sequence, FITC=fluorescein isothiocyanate, AHA=6-aminohexanoic acid). The reaction was incubated for 90 min at 25° C., before the addition of 10 mM EDTA to stop the reaction. The proportion of substrate and product (phosphorylated) peptide was analysed on a Caliper Life Sciences Lab Chip 3000, using a pressure of −1.4 psi, and upstream and downstream voltages of −3000 and −700 respectively. Product peaks were resolved before substrate peaks on the resulting chromatograms.

T1 sequence (P31749 whole entry): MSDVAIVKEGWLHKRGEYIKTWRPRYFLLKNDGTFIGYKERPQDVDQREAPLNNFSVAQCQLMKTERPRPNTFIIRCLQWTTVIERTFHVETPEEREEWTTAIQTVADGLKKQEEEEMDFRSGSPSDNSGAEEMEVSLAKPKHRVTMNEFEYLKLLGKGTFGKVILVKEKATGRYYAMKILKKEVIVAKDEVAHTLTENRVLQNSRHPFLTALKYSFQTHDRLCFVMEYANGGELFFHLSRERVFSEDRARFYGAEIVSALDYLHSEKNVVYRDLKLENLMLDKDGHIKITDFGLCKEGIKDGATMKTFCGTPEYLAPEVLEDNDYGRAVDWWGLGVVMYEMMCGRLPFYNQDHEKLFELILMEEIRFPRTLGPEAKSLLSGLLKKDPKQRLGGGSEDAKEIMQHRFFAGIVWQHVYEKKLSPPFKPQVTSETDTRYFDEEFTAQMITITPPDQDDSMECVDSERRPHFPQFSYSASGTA

Row | Structure (SMILES) | pIC50 [1] | pIC50 [2]
1 | Fc1ccc(-c2cn(CCN3CCC3)c(C3CCN(c4ncnc5c4OCCN5)CC3)n2)cc1C(F)(F)F [Compound A1, 4-(4-(1-(2-(azetidin-1-yl)ethyl)-4-(4-fluoro-3-(trifluoromethyl)phenyl)-1H-imidazol-2-yl)piperidin-1-yl)-7,8-dihydro-6H-pyrimido[5,4-b][1,4]oxazine] | > 7.60 | > 7.60
2 | FC(F)(F)c1cc(-c2cn(CCN3CCC3)c(C3CCN(c4ncnc5c4OCCN5)CC3)n2)ccn1 [Compound A2, 4-(4-(1-(2-(azetidin-1-yl)ethyl)-4-(2-(trifluoromethyl)pyridin-4-yl)-1H-imidazol-2-yl)piperidin-1-yl)-7,8-dihydro-6H-pyrimido[5,4-b][1,4]oxazine] | 7.00 to 7.59 | > 7.60
3 | CN(C)CCn1cc(-c2ccc(F)c(C(F)(F)F)c2)nc1C1CCN(c2ncnc3c2CCN3)CC1 [Compound A3, 2-(2-(1-(6,7-dihydro-5H-pyrrolo[2,3-d]pyrimidin-4-yl)piperidin-4-yl)-4-(4-fluoro-3-(trifluoromethyl)phenyl)-1H-imidazol-1-yl)-N,N-dimethylethanamine] | > 7.60 | > 7.60
4 | CN(C)CCn1cc(-c2ccc(F)c(C(F)(F)F)c2)nc1C1CCN(c2ccnc3c2CCCN3)CC1 [Compound A5, 2-(4-(4-fluoro-3-(trifluoromethyl)phenyl)-2-(1-(5,6,7,8-tetrahydro-1,8-naphthyridin-4-yl)piperidin-4-yl)-1H-imidazol-1-yl)-N,N-dimethylethanamine] | 7.00 to 7.59 | > 7.60
5 | CN(C)CCn1cc(-c2ccc(F)c(C(F)(F)F)c2)nc1C1CCN(c2ncnc3c2OCCN3)CC1 [Compound A6, {2-[2-[1-(7,8-Dihydro-6H-pyrimido[5,4-b][1,4]oxazin-4-yl)-piperidin-4-yl]-4-(4-fluoro-3-trifluoromethyl-phenyl)-imidazol-1-yl]-ethyl}-dimethylamine] | > 7.60 | > 7.60
6 | Cc1cc(-c2cn(CCN(C)C)c(C3CCN(c4ncnc5c4OCCN5)CC3)n2)ccc1F [Compound A7, {2-[2-[1-(7,8-Dihydro-6H-pyrimido[5,4-b][1,4]oxazin-4-yl)-piperidin-4-yl]-4-(4-fluoro-3-methyl-phenyl)-imidazol-1-yl]-ethyl}-dimethylamine] | 7.00 to 7.59 | > 7.60
7 | COc1cc(-c2cn(CCN(C)C)c(C3CCN(c4ncnc5c4OCCN5)CC3)n2)ccc1F [Compound A8, {2-[2-[1-(7,8-Dihydro-6H-pyrimido[5,4-b][1,4]oxazin-4-yl)-piperidin-4-yl]-4-(4-fluoro-3-methoxy-phenyl)-imidazol-1-yl]-ethyl}-dimethylamine] | > 7.60 | > 7.60
8 | CN(C)CCn1cc(-c2ccc(F)c(Cl)c2)nc1C1CCN(c2ncnc3c2OCCN3)CC1 [Compound A9, (2-{4-(3-Chloro-4-fluoro-phenyl)-2-[1-(7,8-dihydro-6H-pyrimido[5,4-b][1,4]oxazin-4-yl)-piperidin-4-yl]-imidazol-1-yl}-ethyl)-dimethylamine] | > 7.60 | > 7.60
9 | CN(C)CCn1cc(-c2ccnc(C(F)(F)F)c2)nc1C1CCN(c2ncnc3c2OCCN3)CC1 [Compound A10, {2-[2-[1-(7,8-Dihydro-6H-pyrimido[5,4-b][1,4]oxazin-4-yl)-piperidin-4-yl]-4-(2-trifluoromethyl-pyridin-4-yl)-imidazol-1-yl]-ethyl}-dimethylamine] | 7.00 to 7.59 | > 7.60
10 | Cc1cc(-c2cn(CCN3CCC3)c(C3CCN(c4ncnc5c4OCCN5)CC3)n2)ccc1F [Compound A11, 4-{4-[1-(2-Azetidin-1-yl-ethyl)-4-(4-fluoro-3-methyl-phenyl)-1H-imidazol-2-yl]-piperidin-1-yl}-7,8-dihydro-6H-pyrimido[5,4-b][1,4]oxazine] | > 7.60 | > 7.60
11 | Fc1ccc(-c2cn(CCN3CCC3)c(C3CCN(c4ncnc5c4OCCN5)CC3)n2)cc1Cl [Compound A13, 4-{4-[1-(2-Azetidin-1-yl-ethyl)-4-(3-chloro-4-fluoro-phenyl)-1H-imidazol-2-yl]-piperidin-1-yl}-7,8-dihydro-6H-pyrimido[5,4-b][1,4]oxazine] | > 7.60 | > 7.60

Second part, the compound after the results:

Row | pIC50 [1] | pIC50 [2] | Structure (SMILES)
12 | 7.00 to 7.59 | > 7.60 | CN(C)CCn1cc(-c2ccc(F)c(C(F)(F)F)c2)nc1C1CCN(c2ncnc3c2CCC3)CC1 [Compound A14, {2-[2-[1-(6,7-Dihydro-5H-cyclopentapyrimidin-4-yl)-piperidin-4-yl]-4-(4-fluoro-3-trifluoromethyl-phenyl)-imidazol-1-yl]-ethyl}-dimethylamine]
13 | 6.30 to 7.00 | > 7.60 | Cc1cc(-c2cn(CCN(C)C)c(C3CCN(c4ncnc5c4CCC5)CC3)n2)ccc1F [Compound A15, {2-[2-[1-(6,7-Dihydro-5H-cyclopentapyrimidin-4-yl)-piperidin-4-yl]-4-(4-fluoro-3-methyl-phenyl)-imidazol-1-yl]-ethyl}-dimethylamine]
14 | 7.00 to 7.59 | > 7.60 | COc1cc(-c2cn(CCN(C)C)c(C3CCN(c4ncnc5c4CCC5)CC3)n2)ccc1F [Compound A16, {2-[2-[1-(6,7-Dihydro-5H-cyclopentapyrimidin-4-yl)-piperidin-4-yl]-4-(4-fluoro-3-methoxy-phenyl)-imidazol-1-yl]-ethyl}-dimethylamine]
15 | 7.00 to 7.59 | > 7.60 | CN(C)CCn1cc(-c2ccc(F)c(Cl)c2)nc1C1CCN(c2ncnc3c2CCC3)CC1 [Compound A17, (2-{4-(3-Chloro-4-fluoro-phenyl)-2-[1-(6,7-dihydro-5H-cyclopentapyrimidin-4-yl)-piperidin-4-yl]-imidazol-1-yl}-ethyl)-dimethylamine]
16 | 6.30 to 7.00 | 7.00 to 7.59 | CN(C)CCn1cc(-c2ccnc(C(F)(F)F)c2)nc1C1CCN(c2ncnc3c2CCC3)CC1 [Compound A18, {2-[2-[1-(6,7-Dihydro-5H-cyclopentapyrimidin-4-yl)-piperidin-4-yl]-4-(2-trifluoromethyl-pyridin-4-yl)-imidazol-1-yl]-ethyl}-dimethylamine]
17 | > 7.60 | > 7.60 | Fc1ccc(-c2cn(CCN3CCC3)c(C3CCN(c4ncnc5c4CCC5)CC3)n2)cc1Cl [Compound A19, 4-{4-[1-(2-Azetidin-1-yl-ethyl)-4-(3-chloro-4-fluoro-phenyl)-1H-imidazol-2-yl]-piperidin-1-yl}-6,7-dihydro-5H-cyclopentapyrimidine]
18 | > 7.60 | > 7.60 | Fc1ccc(-c2cn(CCN3CCC3)c(C3CCN(c4ncnc5c4CCC5)CC3)n2)cc1C(F)(F)F [Compound A20, 4-{4-[1-(2-Azetidin-1-yl-ethyl)-4-(4-fluoro-3-trifluoromethyl-phenyl)-1H-imidazol-2-yl]-piperidin-1-yl}-6,7-dihydro-5H-cyclopentapyrimidine]
19 | > 7.60 | > 7.60 | Cc1cc(-c2cn(CCN3CCC3)c(C3CCN(c4ncnc5c4CCC5)CC3)n2)ccc1F [Compound A21, 4-{4-[1-(2-Azetidin-1-yl-ethyl)-4-(4-fluoro-3-methyl-phenyl)-1H-imidazol-2-yl]-piperidin-1-yl}-6,7-dihydro-5H-cyclopentapyrimidine]
20 | > 7.60 | > 7.60 | COc1cc(-c2cn(CCN3CCC3)c(C3CCN(c4ncnc5c4CCC5)CC3)n2)ccc1F [Compound A22, 4-{4-[1-(2-Azetidin-1-yl-ethyl)-4-(4-fluoro-3-methoxy-phenyl)-1H-imidazol-2-yl]-piperidin-1-yl}-6,7-dihydro-5H-cyclopentapyrimidine]
